According to PubChem BioAssay (NCI):
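96-well plates; 48 h exposure; 5 concentrations. Endpoints by linear interpolation between flanking doses. Not reached: highest tested concentration assigned. The concentration for 50% growth inhibition is given as GI50. At the TGI there is no net growth.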

Experiments:
Assay in all cases: growth of human tumour cells (NCI), 48 h; in the data active = GI50 below about 0.43 µM; inactive = the rest
[1] = tested on: MDA-MB-435
[2] = tested on: HCT-15 colon
[3] = tested on: A549 NSCLC
[4] = tested on: SF-539 CNS
[5] = tested on: NCI-H460 lung
[6] = tested on: COLO 205 colon
[7] = tested on: SNB-19 CNS
[8] = tested on: RXF 393 renal
[9] = tested on: LOX IMVI melanoma
[10] = tested on: UO-31 renal
[11] = tested on: IGROV1 ovarian
[12] = tested on: SK-MEL-5 melanoma
[13] = tested on: NCI-H23 lung
[14] = tested on: 786-0 renal
[15] = tested on: HS 578T breast
[16] = tested on: OVCAR-4 ovarian
[17] = tested on: EKVX NSCLC
[18] = tested on: PC-3 prostate
[19] = tested on: MCF7 breast
[20] = tested on: HCT-116 colon
[21] = tested on: SF-295 CNS
[22] = tested on: DU-145 prostate
[23] = tested on: HL-60(TB) leukemia
[24] = tested on: SK-MEL-28 melanoma
[25] = tested on: ACHN renal
[26] = tested on: SW-620 colon
[27] = tested on: U251 CNS
[28] = tested on: K-562 leukemia
[29] = tested on: OVCAR-5 ovarian
[30] = tested on: HCC-2998 colon
[31] = tested on: OVCAR-8 ovarian
[32] = tested on: UACC-62 melanoma
[33] = tested on: MOLT-4 leukemia
[34] = tested on: HOP-92 NSCLC
[35] = tested on: A498 renal
[36] = tested on: MALME-3M melanoma
[37] = tested on: T-47D breast
[38] = tested on: BT-549 breast
[39] = tested on: NCI-H226 lung
[40] = tested on: SF-268 CNS
[41] = tested on: RPMI-8226 leukemia
[42] = tested on: CCRF-CEM leukemia
[43] = tested on: OVCAR-3 ovarian
[44] = tested on: MDA-MB-231 breast
[45] = tested on: M14 melanoma
[46] = tested on: SN12C renal
[47] = tested on: KM12 colon
[48] = tested on: HT29 colon
[49] = tested on: HOP-62 NSCLC
[50] = tested on: CAKI-1 renal
[51] = tested on: SNB-75 CNS
[52] = tested on: NCI/ADR-RES ovarian
[53] = tested on: TK-10 renal
[54] = tested on: NCI-H522 lung
[55] = tested on: UACC-257 melanoma
[56] = tested on: SK-MEL-2 melanoma
[57] = tested on: SR leukemia
[58] = tested on: SK-OV-3 ovarian

S=c1snc2n1CCN2
> 100 µM: TGI [1] | TGI [2] | TGI [3] | TGI [4] | TGI [5] | TGI [6] | TGI [7] | TGI [8] | TGI [9] | TGI [10] | TGI [11] | TGI [12] | TGI [13] | TGI [14] | TGI [15] | TGI [16] | TGI [17] | TGI [18] | TGI [19] | TGI [20] | TGI [21] | TGI [22] | TGI [23] | TGI [24] | TGI [25] | TGI [26] | TGI [27] | TGI [28] | TGI [29] | TGI [31] | TGI [32] | TGI [33] | TGI [34] | TGI [35] | TGI [36] | TGI [38] | TGI [39] | TGI [40] | TGI [41] | TGI [42] | TGI [43] | TGI [44] | TGI [45] | TGI [47] | TGI [48] | TGI [49] | TGI [50] | TGI [51] | TGI [52] | TGI [53] | TGI [54] | TGI [55]
37.4 µM: TGI [37]
86.8 µM: TGI [46]
74.7 µM: TGI [30]
inactive: GI50 [1] > 100 µM | GI50 [2] > 100 µM | GI50 [3] > 100 µM | GI50 [4] > 100 µM | GI50 [5] 54.9 µM | GI50 [6] 25.2 µM | GI50 [7] > 100 µM | GI50 [8] > 100 µM | GI50 [9] 81.7 µM | GI50 [10] > 100 µM | GI50 [11] > 100 µM | GI50 [12] 58.2 µM | GI50 [13] > 100 µM | GI50 [14] 91.7 µM | GI50 [15] > 100 µM | GI50 [16] > 100 µM | GI50 [17] > 100 µM | GI50 [18] 65.4 µM | GI50 [19] 39.3 µM | GI50 [20] 22.6 µM | GI50 [21] > 100 µM | GI50 [22] 91.3 µM | GI50 [23] 48 µM | GI50 [24] 64.4 µM | GI50 [25] > 100 µM | GI50 [26] 40.5 µM | GI50 [27] > 100 µM | GI50 [28] > 100 µM | GI50 [29] > 100 µM | GI50 [30] 19.3 µM | GI50 [31] > 100 µM | GI50 [32] 95.5 µM | GI50 [33] 32.3 µM | GI50 [34] > 100 µM | GI50 [35] 65 µM | GI50 [36] > 100 µM | GI50 [37] 0.85 µM | GI50 [38] > 100 µM | GI50 [39] 32.3 µM | GI50 [40] > 100 µM | GI50 [41] 42.2 µM | GI50 [42] 33.4 µM | GI50 [43] > 100 µM | GI50 [44] 91.1 µM | GI50 [45] > 100 µM | GI50 [46] 10.6 µM | GI50 [47] > 100 µM | GI50 [48] 65.9 µM | GI50 [49] > 100 µM | GI50 [50] > 100 µM | GI50 [51] > 100 µM | GI50 [52] > 100 µM | GI50 [53] > 100 µM | GI50 [54] 40.9 µM | GI50 [55] > 100 µM

CCOC(=O)Nc1nc2ccc(OC)cc2s1
inactive: GI50 [56] > 100 µM | GI50 [57] 8.14 µM | GI50 [1] 4.18 µM | GI50 [2] > 100 µM | GI50 [3] > 100 µM | GI50 [4] > 100 µM | GI50 [5] > 100 µM | GI50 [6] > 100 µM | GI50 [7] > 100 µM | GI50 [8] > 100 µM | GI50 [9] > 100 µM | GI50 [10] > 100 µM | GI50 [11] > 100 µM | GI50 [12] > 100 µM | GI50 [13] > 100 µM | GI50 [14] > 100 µM | GI50 [15] > 100 µM | GI50 [16] > 100 µM | GI50 [18] > 100 µM | GI50 [19] > 100 µM | GI50 [20] > 100 µM | GI50 [21] > 100 µM | GI50 [22] > 100 µM | GI50 [23] > 100 µM | GI50 [24] > 100 µM | GI50 [25] > 100 µM | GI50 [26] > 100 µM | GI50 [27] > 100 µM | GI50 [28] > 100 µM | GI50 [29] > 100 µM | GI50 [30] > 100 µM | GI50 [31] > 100 µM | GI50 [32] > 100 µM | GI50 [33] > 100 µM | GI50 [34] > 100 µM | GI50 [36] > 100 µM | GI50 [37] > 100 µM | GI50 [38] > 100 µM | GI50 [39] > 100 µM | GI50 [40] > 100 µM | GI50 [41] > 100 µM | GI50 [42] > 100 µM | GI50 [43] > 100 µM | GI50 [44] > 100 µM | GI50 [45] > 100 µM | GI50 [46] > 100 µM | GI50 [47] > 100 µM | GI50 [48] > 100 µM | GI50 [49] > 100 µM | GI50 [50] > 100 µM | GI50 [51] > 100 µM | GI50 [52] > 100 µM | GI50 [53] > 100 µM | GI50 [54] > 100 µM | GI50 [58] > 100 µM | GI50 [55] > 100 µM
> 100 µM: TGI [56] | TGI [57] | TGI [1] | TGI [2] | TGI [3] | TGI [4] | TGI [5] | TGI [6] | TGI [7] | TGI [8] | TGI [9] | TGI [10] | TGI [11] | TGI [12] | TGI [13] | TGI [14] | TGI [15] | TGI [16] | TGI [18] | TGI [19] | TGI [20] | TGI [21] | TGI [22] | TGI [23] | TGI [24] | TGI [25] | TGI [26] | TGI [27] | TGI [28] | TGI [29] | TGI [30] | TGI [31] | TGI [32] | TGI [33] | TGI [34] | TGI [36] | TGI [37] | TGI [38] | TGI [39] | TGI [40] | TGI [41] | TGI [42] | TGI [43] | TGI [44] | TGI [45] | TGI [46] | TGI [47] | TGI [48] | TGI [49] | TGI [50] | TGI [51] | TGI [52] | TGI [53] | TGI [54] | TGI [58] | TGI [55]
